Results as given in ChEMBL document CHEMBL4507319 (2021).

Key:
[1] = target: Serine/threonine-protein kinase B-raf (Homo sapiens) (UniProt P15056); conditions: Compound concentration 1000.0 nM
[2] = target: Cyclin-dependent kinase 13 (Homo sapiens) (UniProt Q14004); conditions: Compound concentration 1000.0 nM
[3] = tested on: Mast/stem cell growth factor receptor Kit (Homo sapiens), P10721 [L576P]; conditions: Compound concentration 1000.0 nM
Rattus norvegicus = species on record: Rattus norvegicus; conditions: Compound concentration 10.0 uM
[4] = target: Histamine H1 receptor (Homo sapiens) (UniProt P35367); conditions: Compound concentration 10.0 uM
Sequence of Histamine H1 receptor (Homo sapiens) (P35367 whole entry): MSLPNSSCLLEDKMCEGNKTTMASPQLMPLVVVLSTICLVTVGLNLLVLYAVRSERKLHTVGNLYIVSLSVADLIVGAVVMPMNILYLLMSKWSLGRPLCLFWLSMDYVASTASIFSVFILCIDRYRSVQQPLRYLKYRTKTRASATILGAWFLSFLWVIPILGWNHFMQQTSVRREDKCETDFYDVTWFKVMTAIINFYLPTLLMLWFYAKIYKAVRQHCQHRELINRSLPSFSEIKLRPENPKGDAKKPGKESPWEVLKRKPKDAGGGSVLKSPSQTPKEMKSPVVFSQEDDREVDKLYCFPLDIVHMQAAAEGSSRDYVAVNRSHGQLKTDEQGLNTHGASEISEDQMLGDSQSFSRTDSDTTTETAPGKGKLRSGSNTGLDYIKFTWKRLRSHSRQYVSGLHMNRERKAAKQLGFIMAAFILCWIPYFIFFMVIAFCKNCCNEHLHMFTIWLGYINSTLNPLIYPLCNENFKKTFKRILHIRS

[5] = tested on: Receptor-type tyrosine-protein kinase FLT3 (Homo sapiens), P36888 [UNDEFINED MUTATION]; conditions: Compound concentration 1000.0 nM
Sequence of Receptor-type tyrosine-protein kinase FLT3 (Homo sapiens), P36888 [UNDEFINED MUTATION] (P36888 whole entry, looked up, change not shown): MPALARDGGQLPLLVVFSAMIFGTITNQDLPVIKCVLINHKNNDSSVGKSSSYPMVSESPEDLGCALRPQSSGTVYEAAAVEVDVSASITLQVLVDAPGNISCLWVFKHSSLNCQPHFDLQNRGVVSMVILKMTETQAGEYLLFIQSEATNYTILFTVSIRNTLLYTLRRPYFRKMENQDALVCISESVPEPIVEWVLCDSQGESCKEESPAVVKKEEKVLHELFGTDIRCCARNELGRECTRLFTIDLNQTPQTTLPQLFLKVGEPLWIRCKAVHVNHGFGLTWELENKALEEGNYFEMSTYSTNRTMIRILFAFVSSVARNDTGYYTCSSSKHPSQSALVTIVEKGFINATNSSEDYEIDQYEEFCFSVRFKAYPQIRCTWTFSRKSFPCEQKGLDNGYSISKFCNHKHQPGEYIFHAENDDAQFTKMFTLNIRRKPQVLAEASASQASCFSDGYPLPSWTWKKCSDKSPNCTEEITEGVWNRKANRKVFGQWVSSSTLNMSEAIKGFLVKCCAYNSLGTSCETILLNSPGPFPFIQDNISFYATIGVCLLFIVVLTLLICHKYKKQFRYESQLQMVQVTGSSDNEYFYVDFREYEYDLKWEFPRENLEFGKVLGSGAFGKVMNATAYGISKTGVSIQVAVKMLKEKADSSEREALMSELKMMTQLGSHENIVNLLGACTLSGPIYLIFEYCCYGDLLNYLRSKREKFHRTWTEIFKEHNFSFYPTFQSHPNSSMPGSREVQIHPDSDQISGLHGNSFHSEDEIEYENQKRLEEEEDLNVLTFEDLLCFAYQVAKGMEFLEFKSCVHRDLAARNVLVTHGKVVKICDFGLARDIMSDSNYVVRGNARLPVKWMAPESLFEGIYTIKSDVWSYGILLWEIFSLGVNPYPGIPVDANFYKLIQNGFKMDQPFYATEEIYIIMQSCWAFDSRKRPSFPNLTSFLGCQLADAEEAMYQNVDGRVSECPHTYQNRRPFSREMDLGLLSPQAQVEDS

[6] = target: Phosphatidylinositol 4-phosphate 5-kinase type-1 gamma (Homo sapiens) (UniProt O60331); conditions: Compound concentration 1000.0 nM
Sequence of Phosphatidylinositol 4-phosphate 5-kinase type-1 gamma (Homo sapiens) (O60331 whole entry): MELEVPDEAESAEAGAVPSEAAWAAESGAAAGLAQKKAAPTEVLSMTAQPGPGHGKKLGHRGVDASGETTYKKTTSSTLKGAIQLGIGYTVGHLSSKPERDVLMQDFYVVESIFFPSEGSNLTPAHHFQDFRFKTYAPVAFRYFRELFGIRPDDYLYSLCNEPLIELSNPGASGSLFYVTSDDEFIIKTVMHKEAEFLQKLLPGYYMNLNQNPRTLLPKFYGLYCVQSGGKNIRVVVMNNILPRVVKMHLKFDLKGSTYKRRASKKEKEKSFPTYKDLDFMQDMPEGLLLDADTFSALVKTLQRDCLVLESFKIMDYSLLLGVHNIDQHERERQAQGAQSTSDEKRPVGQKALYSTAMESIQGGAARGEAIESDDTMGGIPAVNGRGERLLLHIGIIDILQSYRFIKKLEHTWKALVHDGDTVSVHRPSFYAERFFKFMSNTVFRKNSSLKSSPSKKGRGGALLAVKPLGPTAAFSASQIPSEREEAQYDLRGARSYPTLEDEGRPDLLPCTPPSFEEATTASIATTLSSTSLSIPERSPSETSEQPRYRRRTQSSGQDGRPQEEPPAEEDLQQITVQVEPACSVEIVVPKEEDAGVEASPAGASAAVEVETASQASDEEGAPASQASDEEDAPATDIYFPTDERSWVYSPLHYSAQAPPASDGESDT

[7] = target: Serine/threonine-protein kinase SIK1 (Homo sapiens) (UniProt P57059); conditions: Compound concentration 1000.0 nM
[8] = target: T1, Serine/threonine-protein kinase Nek3 (Homo sapiens) (UniProt P51956); conditions: Compound concentration 1000.0 nM
T1 sequence (whole entry): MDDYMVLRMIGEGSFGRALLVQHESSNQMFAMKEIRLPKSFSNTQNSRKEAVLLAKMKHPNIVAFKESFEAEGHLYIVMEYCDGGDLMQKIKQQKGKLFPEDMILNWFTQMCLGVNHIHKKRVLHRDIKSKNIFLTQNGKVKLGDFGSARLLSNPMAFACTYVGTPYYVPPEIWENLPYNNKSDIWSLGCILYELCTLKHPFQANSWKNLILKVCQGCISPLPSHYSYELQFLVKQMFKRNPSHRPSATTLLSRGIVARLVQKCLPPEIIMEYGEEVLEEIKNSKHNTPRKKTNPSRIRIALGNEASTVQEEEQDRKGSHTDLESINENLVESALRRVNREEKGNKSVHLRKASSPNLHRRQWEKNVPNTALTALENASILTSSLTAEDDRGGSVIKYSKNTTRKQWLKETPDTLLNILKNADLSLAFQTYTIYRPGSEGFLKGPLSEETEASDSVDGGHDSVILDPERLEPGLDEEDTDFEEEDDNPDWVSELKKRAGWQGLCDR

[9] = target: Dual specificity tyrosine-phosphorylation-regulated kinase 1B (Homo sapiens) (UniProt Q9Y463); conditions: Compound concentration 1000.0 nM
Sequence of Dual specificity tyrosine-phosphorylation-regulated kinase 1B (Homo sapiens) (Q9Y463 whole entry, looked up): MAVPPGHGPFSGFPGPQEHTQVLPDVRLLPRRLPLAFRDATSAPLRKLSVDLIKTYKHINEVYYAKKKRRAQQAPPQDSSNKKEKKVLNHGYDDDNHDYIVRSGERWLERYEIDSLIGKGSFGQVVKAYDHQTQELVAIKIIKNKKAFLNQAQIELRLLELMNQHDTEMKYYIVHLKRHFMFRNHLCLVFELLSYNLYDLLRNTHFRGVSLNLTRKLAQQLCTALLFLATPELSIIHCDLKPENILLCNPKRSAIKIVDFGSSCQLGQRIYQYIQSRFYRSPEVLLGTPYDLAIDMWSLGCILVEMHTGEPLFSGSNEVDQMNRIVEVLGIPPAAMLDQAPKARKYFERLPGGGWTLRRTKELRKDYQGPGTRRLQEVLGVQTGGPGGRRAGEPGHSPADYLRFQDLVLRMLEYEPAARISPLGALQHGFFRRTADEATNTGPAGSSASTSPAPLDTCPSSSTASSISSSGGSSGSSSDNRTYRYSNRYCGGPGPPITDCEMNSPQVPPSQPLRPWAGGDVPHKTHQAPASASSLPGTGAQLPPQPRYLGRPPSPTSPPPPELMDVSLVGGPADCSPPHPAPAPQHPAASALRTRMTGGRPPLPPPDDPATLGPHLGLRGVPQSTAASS

[10] = target: T2, Tyrosine-protein kinase Tec (Homo sapiens) (UniProt P42680); conditions: Compound concentration 1000.0 nM
T2 sequence (whole entry): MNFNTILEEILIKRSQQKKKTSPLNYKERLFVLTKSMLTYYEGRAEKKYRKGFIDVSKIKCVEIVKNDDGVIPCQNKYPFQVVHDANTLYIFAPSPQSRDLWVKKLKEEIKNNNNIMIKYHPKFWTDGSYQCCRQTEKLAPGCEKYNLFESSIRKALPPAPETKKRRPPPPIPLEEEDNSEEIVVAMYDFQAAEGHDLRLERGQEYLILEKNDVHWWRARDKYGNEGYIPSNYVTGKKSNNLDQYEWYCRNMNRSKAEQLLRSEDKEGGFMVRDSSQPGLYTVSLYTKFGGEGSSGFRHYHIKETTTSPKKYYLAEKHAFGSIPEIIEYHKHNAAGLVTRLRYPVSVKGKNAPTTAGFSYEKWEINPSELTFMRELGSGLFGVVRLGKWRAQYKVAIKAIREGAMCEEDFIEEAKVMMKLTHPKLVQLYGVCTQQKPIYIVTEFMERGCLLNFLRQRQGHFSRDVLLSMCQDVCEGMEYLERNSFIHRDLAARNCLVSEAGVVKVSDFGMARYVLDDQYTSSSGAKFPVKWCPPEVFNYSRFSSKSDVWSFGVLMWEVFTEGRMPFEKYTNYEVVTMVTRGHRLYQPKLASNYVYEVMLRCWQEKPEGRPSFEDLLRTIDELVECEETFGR

[11] = target: Serine/threonine-protein kinase RIO2 (Homo sapiens) (UniProt Q9BVS4); conditions: Compound concentration 1000.0 nM
[12] = target: Aurora kinase B (Homo sapiens) (UniProt Q96GD4); conditions: Compound concentration 1000.0 nM
Sequence of Aurora kinase B (Homo sapiens) (Q96GD4 whole entry): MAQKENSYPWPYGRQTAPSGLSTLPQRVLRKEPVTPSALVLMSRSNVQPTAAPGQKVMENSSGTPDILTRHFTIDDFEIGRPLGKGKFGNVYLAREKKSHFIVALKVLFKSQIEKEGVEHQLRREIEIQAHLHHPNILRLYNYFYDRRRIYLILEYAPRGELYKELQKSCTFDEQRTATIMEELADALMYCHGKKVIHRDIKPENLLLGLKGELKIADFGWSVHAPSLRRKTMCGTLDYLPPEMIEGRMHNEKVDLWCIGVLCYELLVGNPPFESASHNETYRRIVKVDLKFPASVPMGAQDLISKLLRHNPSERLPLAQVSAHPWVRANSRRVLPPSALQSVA

[13] = target: Mitogen-activated protein kinase 6 (Homo sapiens) (UniProt Q16659); conditions: Compound concentration 1000.0 nM
[14] = target: Ankyrin repeat and protein kinase domain-containing protein 1 (Homo sapiens) (UniProt Q8NFD2); conditions: Compound concentration 1000.0 nM

Sequence of Serine/threonine-protein kinase B-raf (Homo sapiens) (P15056 whole entry): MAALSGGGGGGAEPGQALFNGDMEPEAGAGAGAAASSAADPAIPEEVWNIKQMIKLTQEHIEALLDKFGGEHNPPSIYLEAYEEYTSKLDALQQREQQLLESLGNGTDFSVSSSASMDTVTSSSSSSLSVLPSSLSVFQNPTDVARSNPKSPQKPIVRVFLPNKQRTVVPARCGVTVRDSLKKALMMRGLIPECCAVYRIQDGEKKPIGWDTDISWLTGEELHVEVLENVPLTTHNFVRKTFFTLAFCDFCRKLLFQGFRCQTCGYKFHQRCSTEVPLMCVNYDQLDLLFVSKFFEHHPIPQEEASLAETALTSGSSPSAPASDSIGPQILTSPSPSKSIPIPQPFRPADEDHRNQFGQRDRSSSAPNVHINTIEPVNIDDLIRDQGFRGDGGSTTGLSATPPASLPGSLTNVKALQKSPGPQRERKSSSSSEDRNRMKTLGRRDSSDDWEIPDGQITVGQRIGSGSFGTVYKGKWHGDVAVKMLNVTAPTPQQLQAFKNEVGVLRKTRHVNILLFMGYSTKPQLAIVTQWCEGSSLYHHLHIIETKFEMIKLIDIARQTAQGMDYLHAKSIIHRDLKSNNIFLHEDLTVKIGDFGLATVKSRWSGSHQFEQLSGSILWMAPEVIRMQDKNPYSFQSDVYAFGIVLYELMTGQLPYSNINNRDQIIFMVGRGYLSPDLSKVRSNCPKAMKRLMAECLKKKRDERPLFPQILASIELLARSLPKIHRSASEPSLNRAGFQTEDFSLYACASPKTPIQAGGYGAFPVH
Sequence of Mast/stem cell growth factor receptor Kit (Homo sapiens), P10721 [L576P] (P10721 whole entry L576P): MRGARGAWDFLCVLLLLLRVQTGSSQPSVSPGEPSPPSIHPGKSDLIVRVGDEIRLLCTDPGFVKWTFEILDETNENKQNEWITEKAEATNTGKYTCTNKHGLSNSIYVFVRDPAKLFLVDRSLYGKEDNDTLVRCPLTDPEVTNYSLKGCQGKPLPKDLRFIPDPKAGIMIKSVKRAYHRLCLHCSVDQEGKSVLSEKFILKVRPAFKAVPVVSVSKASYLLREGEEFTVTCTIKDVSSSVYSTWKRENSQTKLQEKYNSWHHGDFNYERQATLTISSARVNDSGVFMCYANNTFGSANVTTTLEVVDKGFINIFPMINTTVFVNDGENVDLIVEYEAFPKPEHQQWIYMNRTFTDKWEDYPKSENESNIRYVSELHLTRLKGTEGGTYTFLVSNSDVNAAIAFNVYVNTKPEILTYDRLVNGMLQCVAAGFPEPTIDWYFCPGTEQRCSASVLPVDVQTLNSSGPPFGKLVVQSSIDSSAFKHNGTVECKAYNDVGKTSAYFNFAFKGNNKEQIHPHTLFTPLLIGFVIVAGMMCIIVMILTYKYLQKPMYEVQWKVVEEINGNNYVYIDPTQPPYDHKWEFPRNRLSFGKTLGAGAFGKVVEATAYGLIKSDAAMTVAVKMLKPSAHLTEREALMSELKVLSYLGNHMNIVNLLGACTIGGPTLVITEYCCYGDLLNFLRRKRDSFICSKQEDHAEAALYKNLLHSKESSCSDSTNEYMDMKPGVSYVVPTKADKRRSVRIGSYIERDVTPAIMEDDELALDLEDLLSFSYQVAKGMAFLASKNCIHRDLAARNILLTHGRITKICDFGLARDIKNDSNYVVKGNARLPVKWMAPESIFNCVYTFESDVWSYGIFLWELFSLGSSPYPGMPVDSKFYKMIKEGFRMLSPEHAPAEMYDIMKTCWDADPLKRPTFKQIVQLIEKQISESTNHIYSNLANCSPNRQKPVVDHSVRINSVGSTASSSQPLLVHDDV

Compound	residual activity [1] [%]	residual activity [2] [%]	residual activity [3] [%]	inhibition (Rattus norvegicus) [%]	inhibition [4] [%]	residual activity [5] [%]	residual activity [6] [%]	residual activity [7] [%]	residual activity [8] [%]	residual activity [9] [%]	residual activity [10] [%]	residual activity [11] [%]	residual activity [12] [%]	residual activity [13] [%]	residual activity [14] [%]
CC1=C(C#N)C(c2ccc3c(c2)c(NC(=O)c2ccccc2C)nn3C)C(C#N)=C(C)N1 [BAY-974]	47	87	100	96.3	0.94	96	91	88	94	63	100	65	66	97	92
CCc1ccccc1C(=O)Nc1n[nH]c2c(C)c(F)c(C3C(C#N)=C(C)N(C)C(C)=C3C#N)cc12 [BAY-3827]	78	100	91	85.6	6.23	11	56	66	100	100	91	93	88	100	100
